Source: patent US7943628B2, “Pyrimidine derivatives” (Pfizer Limited, priority 2005, dated 2011)

Molecular target: T1, histamine H4 receptor (Homo sapiens, UniProt Q9H3N8)
T1 construct: expressed in transfected cells; host or cells: CHO cells
Assay: H4 binding, method 1 ([3H]-histamine filtration binding on CHO cell membranes)
Conditions: for Ki: H4 binding, method 1, Ki calculated from IC50 (Cheng-Prussoff)
Experimental: Cell pellets from CHO cells expressing the histamine H4 receptor were homogenised in ice-cold 50 mM Tris-HCl/0.5 mM CaCl2 buffer containing a protease inhibitor cocktail (Roche®, United Kingdom) using a ground glass homogeniser. Homogenates were centrifuged at 48000 g for 30 min at 4° C. The membrane pellet was resuspended in fresh buffer and the centrifugation step was repeated as described above. The membrane pellet was resuspended in 50 mM Tris-HCl in the same volume as the original cell pellet. Aliquots of membrane preparations were stored at −80° C. and were used for [^3H]-Histamine binding experiments.
Cell membranes (20-35 μg/well) were incubated for 90 minutes shaking at room temperature with 3 nM [2,5-^3H]Histamine dihydrochloride (30-60 Ci/mmol) in 50 mM Tris-HCl (pH 7.4), with or without competing H4 ligands. The reaction was terminated by rapid filtration through 0.5% polyethylenimine-soaked Unifilter GF/B plates (Packard) followed by three washes with 1 ml ice-cold 50 mM Tris-HCl. Filters were dried for 45 min at 45° C. and bound radiolabel was determined using scintillation counting techniques. Non-specific binding was defined with 10 μM JNJ7777120.

Ki [nM] | Structure (SMILES) | other results
298 | CN[C@@H]1CCN(c2cc(NCc3cc(F)ccc3F)nc(N)n2)C1 [Example 245, N^4-(2,5-Difluorobenzyl)-6-[(3R)-3-(methylamino)pyrrolidin-1-yl]pyrimidine-2,4-diamine] | 
32.4 | CN(C)CCNc1cc(NCC2CC2)ncn1 [Example 194, N-(Cyclopropylmethyl)-N′-[2-(dimethylamino)ethyl]pyrimidine4,6-diamine] | 
485 | CN(C)[C@H]1CCN(c2cc(NCCC(C)(C)C)ncn2)C1 [Example 2, 6-[(3S)-3-(Dimethylamino)pyrrolidin-1-yl]-N-(3,3-dimethylbutyl)pyrimidin-4-amine] | 
117 | C[C@H]1CN(c2cc(NCc3cccc(F)c3)nc(N)n2)CCN1 [Example 228, N^4-(3-Fluorobenzyl)-6-[(3S)-3-methylpiperazin-1-yl]pyrimidine-2,4-diamine] | 
102 | CC(C)(C)CCNc1cc(N2CC[C@@H](N)C2)nc(N)n1 [Example 225, 6-[(3R)-3-Aminopyrrolidin-1-yl]-N^4-(3,3-dimethylbutyl)pyrimidine-2,4-diamine] | 
 | CNc1cc(N2CCC(C)(N)C2)nc(N)n1 (stereo not shown) [Example 320, 6-(3-Amino-3-methylpyrrolidin-1-yl)-N^4-methylpyrimidine-2,4-diamine] | Method 1, % at 6.3 μM (at 6.3 μM): 46% at 6.3 μM
16 | CN[C@H]1CCN(c2cc(NCC(C)(C)C)nc(N)n2)C1 [Example 177, N^4-(2,2-Dimethylpropyl)-6-[(3S)-3-(methylamino)pyrrolidin-1-yl]pyrimidine-2,4-diamine] | 
235 | CN1CCCN(c2cc(NCC(C)(C)C)ncn2)CC1 [Example 239, N-(2,2-Dimethylpropyl)-6-(4-methyl-1,4-diazepan-1-yl)pyrimidin-4-amine] | 
52.9 | C[C@H]1CN(c2cc(NCc3ccccc3F)nc(N)n2)CCN1 [Example 213, N^4-(2-Fluorobenzyl)-6-[(3S)-3-methylpiperazin-1-yl]pyrimidine-2,4-diamine] | 
22.2 | CNC1(C)CN(c2cc(NCC(C)(C)C)nc(N)n2)C1 [Example 186, N^4-(2,2-Dimethylpropyl)-6-[3-methyl-3-(methylamino)azetidin-1-yl]pyrimidine-2,4-diamine] | 
 | N[C@@]12C[C@@H]1CN(c1cc(NCC3CC3)ncn1)C2 (relative stereo) [Example 304, (1S*,5R*)-3-{6-[(Cyclopropylmethyl)amino]pyrimidin-4-yl}-3-azabicyclo[3.1.0]hexan-1-amine] | inhibition at 10 µM (1.5 h): 19%
82.3 | CCCNc1cc(N2CC[C@@H](N)C2)nc(N)n1 [Example 219, 6-[(3R)-3-Aminopyrrolidin-1-yl]-N^4-propylpyrimidine-2,4-diamine] | 
6.5 | CNC1CN(c2cc(NC(C)(C)C)nc(N)n2)C1 [Example 168, N^4-(tert-Butyl)-6-[3-(methylamino)azetidin-1-yl]pyrimidine-2,4-diamine] | 
2.75 | CC[C@H](C)Nc1cc(N2CC(NC)C2)nc(N)n1 [Example 161, 6-[3-(Methylamino)azetidin-1-yl]-N^4-[(1S)-1-methylpropyl]pyrimidine-2,4-diamine] | 
17.4 | CCCNc1cc(N2CC[C@@H](NC)C2)nc(N)n1 [Example 180, 6-[(3R)-3-(Methylamino)pyrrolidin-1-yl]-N^4-propylpyrimidine-2,4-diamine] | 
2400 | CN1CCCC(Nc2cc(NCCC(C)(C)C)ncn2)C1 (stereo not shown) [Example 288, N-(3,3-Dimethylbutyl)-N′-(1-methylpiperidin-3-yl)pyrimidine-4,6-diamine] | 
9.21 | Nc1nc(NCC2CC2)cc(N2CC(N)C2)n1 [Example 171, 6-(3-Aminoazetidin-1-yl)-N^4-(cyclopropylmethyl)pyrimidine-2,4-diamine] | 

Ki [nM] | Structure (SMILES) | other results
39.9 | CCCNc1cc(N2CC(NC)C2)ncn1 [Example 206, 6-[3-(Methylamino)azetidin-1-yl]-N-propylpyrimidin-4-amine] | 
374 | CN(C)C1CN(c2cc(NCCC(C)(C)C)ncn2)C1 [Example 4, 6-[3-(Dimethylamino)azetidin-1-yl]-N-(3,3-dimethylbutyl)pyrimidin-4-amine] | 
704 | CCCNc1cc(N2CCC(C)(N)C2)nc(N)n1 (stereo not shown) [Example 264, 6-(3-Amino-3-methylpyrrolidin-1-yl)-N^4-propylpyrimidine-2,4-diamine] | 
6.3 | CN[C@@H]1CCN(c2cc(NCC3CC3)nc(N)n2)C1 [Example 167, N^4-(Cyclopropylmethyl)-6-[(3R)-3-(methylamino)pyrrolidin-1-yl]pyrimidine-2,4-diamine] | 
950 | CN[C@@H]1CCN(c2cc(NCc3cc(F)cc(F)c3)nc(N)n2)C1 [Example 273, N^4-(3,5-Difluorobenzyl)-6-[(3R)-3-(methylamino)pyrrolidin-1-yl]pyrimidine-2,4-diamine] | 
25.8 | CNC1CN(c2cc(NC3CC3)ncn2)C1 [Example 189, N-Cyclopropyl-6-[3-(methylamino)azetidin-1-yl]pyrimidin-4-amine] | 
593 | CN1CC[C@@H](Nc2cc(NCCC(C)(C)C)ncn2)C1 [Example 8, N-(3,3-Dimethylbutyl)-N′-[(3R)-1-methylpyrrolidin-3-yl]pyrimidine-4,6-diamine] | 
452 | Nc1nc(NCc2cccc(F)c2F)cc(N2CC[C@@H](N)C2)n1 [Example 255, 6-[(3R)-3-Aminopyrrolidin-1-yl]-N^4-(2,3-difluorobenzyl)pyrimidine-2,4-diamine] | 
 | CCN(CC)C1CCN(c2cc(NCC(C)(C)C)ncn2)C1 (stereo not shown) [Example 302, 6-[3-(Diethylamino)pyrrolidin-1-yl]-N-(2,2-dimethylpropyl)pyrimidin-4-amine] | inhibition at 10 µM (1.5 h): 20%
12.1 | CCNc1cc(N2CCC(N)CC2)nc(N)n1 [Example 139, 6-(4-Aminopiperidin-1-yl)-N^4-ethylpyrimidine-2,4-diamine] | 
 | CNC1CN(c2cc(NCc3cc(F)cc(F)c3)nc(N)n2)C1 [Example 316, N^4-(3,5-Difluorobenzyl)-6-[3-(methylamino)azetidin-1-yl]pyrimidine-2,4-diamine] | Method 1, activity at top dose (10 μM) (top dose 10 μM): No activity at top
33.1 | CNC1(C)CN(c2cc(NCC3CC3)nc(N)n2)C1 [Example 196, N^4-(Cyclopropylmethyl)-6-[3-methyl-3-(methylamino)azetidin-1-yl]pyrimidine-2,4-diamine] | 
297 | CC(C)(C)CCNc1cc(N2CC(N3CCCC3)C2)ncn1 [Example 244, N-(3,3-Dimethylbutyl)-6-(3-pyrrolidin-1-ylazetidin-1-yl)pyrimidin-4-amine] | 
 | CCNc1cc(N2CCCC(NC)C2)nc(N)n1 (stereo not shown) [Example 324, N^4-Ethyl-6-[3-(methylamino)piperidin-1-yl]pyrimidine-2,4-diamine] | inhibition at 20 µM (1.5 h): 55%
14.3 | CC(C)NC1CN(c2cc(NCC(C)(C)C)nc(N)n2)C1 [Example 145, N^4-(2,2-Dimethylpropyl)-6-[3-(isopropylamino)azetidin-1-yl]pyrimidine-2,4-diamine] | 
258 | CNC1CN(c2cc(N3CCOC[C@@H]3C)nc(N)n2)C1 [Example 242, 4-[3-(Methylamino)azetidin-1-yl]-6-[(3S)-3-methylmorpholiN^4-yl]pyrimidin-2-amine] | 

Structure (SMILES) | Ki [nM] | other results
CC(C)(C)Nc1cc(N2C[C@@H]3CCCN[C@@H]3C2)nc(N)n1 (relative stereo) [Example 150, N^4-(tert-Butyl)-6-[(4aS*,7aS*)-octahydro-6H-pyrrolo[3,4-b]pyridin-6-yl]pyrimidine-2,4-diamine] | 11.8 | 
CN1C[C@@H]2CN(c3cc(NCCC(C)(C)C)ncn3)C[C@@H]2C1 [Example 3, N-(3,3-Dimethylbutyl)-6-[(3aR*,6aS*)-5-methylhexahydropyrrolo[3,4-c]pyrrol-2(1H)-yl]pyrimidin-4-amine] | 220 | 
CN1CCN(c2cc(NCC3CC3)ncn2)CC1 [Example 106, N-(Cyclopropylmethyl)-6-(4-methylpiperazin-1-yl)pyrimidin-4-amine] | 66.1 | 
CCNc1cc(N2CC[C@@H]3NCC[C@@H]3C2)nc(N)n1 (racemic) [Example 193, N^4-Ethyl-6-[(3aR*,7aS*)-octahydro-5H-pyrrolo[3,2-c]pyridin-5-yl]pyrimidine-2,4-diamine] | 31 | 
CC(C)Nc1cc(N2C[C@H]3CNC[C@H]3C2)nc(N)n1 [Example 238, 6-[(3aR*,6aS*)-Hexahydropyrrolo[3,4-c]pyrrol-2(1H )-yl]-N^4-isopropylpyrimidine-2,4-diamine] | 222 | 
Nc1nc(NCC2CC2)cc(N2C[C@H]3CCCN[C@H]3C2)n1 [Example 165, N^4-(Cyclopropylmethyl)-6-[(4aR,7aR)-octahydro-6H-pyrrolo[3,4-b]pyridin-6-yl]pyrimidine-2,4-diamine] | 3.83 | 
Nc1nc(NCC2CC2)cc(N2CCNCC2)n1 [Example 154, N^4-(Cyclopropylmethyl)-6-piperazin-1-ylpyrimidine-2,4-diamine] | 1.71 | 
CC(C)CCNc1cc(N2CCN(C)CC2)ncn1 [Example 100, N-(3-Methylbutyl)-6-(4-methylpiperazin-1-yl)pyrimidin-4-amine] | 40.2 | 
CCNc1cc(N2CCNCC2)nc(N)n1 [Example 214, N^4-Ethyl-6-piperazin-1-ylpyrimidine-2,4-diamine] | 54.4 | 
CC(C)Nc1cc(N2CCN(C)CC2)ncn1 [Example 104, N-Isopropyl-6-(4-methylpiperazin-1-yl)pyrimidin-4-amine] | 118 | 
